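Where inhibition never reached the appropriate level, the endpoint shown equals the highest concentration tested. Otherwise, values were interpolated linearly from a five-concentration, 48-hour dose response in 96-well plates. At the GI50, growth is halved.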 Calls of active or inactive are those of the source. Rule as the data show it: active = GI50 up to about 1.1 µM and inactive = higher.
Columns and labels:
Test in all cases: inhibition of tumour cell growth, NCI panel, 48 h
A549 = test system: A549
CCRF-CEM = test system: CCRF-CEM
Malme-3M = test system: Malme-3M
ACHN = test system: ACHN
M14 = test system: M14
OVCAR-4 = test system: OVCAR-4
U-251 = test system: U-251
UACC-257 = test system: UACC-257
OVCAR-8 = test system: OVCAR-8
EKVX = test system: EKVX
SK-MEL-28 = test system: SK-MEL-28
COLO 205 = test system: COLO 205
MDA-MB-231 = test system: MDA-MB-231
SK-OV-3 = test system: SK-OV-3
SR = test system: SR
MDA-MB-435 = test system: MDA-MB-435
HCT-116 = test system: HCT-116
A498 = test system: A498
HOP-92 = test system: HOP-92

Row | Compound | GI50 (A549) | GI50 (CCRF-CEM) | GI50 (Malme-3M) | GI50 (ACHN) | GI50 (M14) | GI50 (OVCAR-4) | GI50 (U-251) | GI50 (UACC-257) | GI50 (OVCAR-8) | GI50 (EKVX) | GI50 (SK-MEL-28) | GI50 (COLO 205) | GI50 (MDA-MB-231) | GI50 (SK-OV-3) | GI50 (SR) | GI50 (MDA-MB-435) | GI50 (HCT-116) | GI50 (A498) | GI50 (HOP-92)
1 | CC(=O)O[C@H]1CC[C@H]2[C@@H]3CCc4cc(O)c(I)cc4[C@H]3CC[C@]12C | 15.3 µM (inactive) | > 10 µM (inactive) | 16.9 µM (inactive) | 14.9 µM (inactive) | 13.6 µM (inactive) | 13.6 µM (inactive) | 14.7 µM (inactive) | 16.4 µM (inactive) | 18.3 µM (inactive) | 13.1 µM (inactive) | 15.3 µM (inactive) | 18.1 µM (inactive) | 3.64 µM (inactive) | 15.7 µM (inactive) | 10.6 µM (inactive) |  |  |  | 
2 | Cc1ccc(-n2nnc(C#N)c2O)cc1 | > 100 µM (inactive) | > 100 µM (inactive) | > 100 µM (inactive) | > 100 µM (inactive) | > 100 µM (inactive) | > 100 µM (inactive) | > 100 µM (inactive) | > 100 µM (inactive) | > 100 µM (inactive) | > 100 µM (inactive) | > 100 µM (inactive) | > 100 µM (inactive) | > 100 µM (inactive) | > 100 µM (inactive) |  | > 100 µM (inactive) | > 100 µM (inactive) |  | 
3 | COC(=O)C1CC(C=O)=C(SC)N1 (configuration not stated) | > 50 µM (inactive) |  | > 50 µM (inactive) | > 50 µM (inactive) | > 50 µM (inactive) | > 50 µM (inactive) | > 50 µM (inactive) | > 50 µM (inactive) | > 50 µM (inactive) | > 50 µM (inactive) | > 50 µM (inactive) | > 50 µM (inactive) | > 50 µM (inactive) | > 50 µM (inactive) |  | > 50 µM (inactive) | > 50 µM (inactive) | > 50 µM (inactive) | > 50 µM (inactive)
4 | Cc1ccc(S(=O)(=O)NC(=O)NC(CCCCN)C(=O)O)cc1 (configuration not stated) | > 100 µM (inactive) | > 100 µM (inactive) | > 100 µM (inactive) | > 100 µM (inactive) | > 100 µM (inactive) | > 100 µM (inactive) | > 100 µM (inactive) | > 100 µM (inactive) | > 100 µM (inactive) |  | > 100 µM (inactive) | > 100 µM (inactive) | > 100 µM (inactive) | > 100 µM (inactive) | > 100 µM (inactive) |  | > 100 µM (inactive) |  | 70 µM (inactive)
5 | Cc1nc2nn(C)cc2c(=O)n1/N=C/c1ccccc1 | > 100 µM (inactive) | > 100 µM (inactive) | > 100 µM (inactive) | > 100 µM (inactive) |  | > 100 µM (inactive) | > 100 µM (inactive) | > 100 µM (inactive) | > 100 µM (inactive) | > 100 µM (inactive) | > 100 µM (inactive) | > 100 µM (inactive) |  | > 100 µM (inactive) | > 100 µM (inactive) |  | > 100 µM (inactive) | > 100 µM (inactive) | 
6 | CCc1nn(S(=O)(=O)c2ccc(C)cc2)c2c1CS(=O)(=O)CC2 | > 100 µM (inactive) |  |  | > 100 µM (inactive) | > 100 µM (inactive) | > 100 µM (inactive) | > 100 µM (inactive) | > 100 µM (inactive) | 34.9 µM (inactive) | 89.7 µM (inactive) | > 100 µM (inactive) | > 100 µM (inactive) | > 100 µM (inactive) | 69.3 µM (inactive) |  | > 100 µM (inactive) | > 100 µM (inactive) | > 100 µM (inactive) | 
7 | Nc1nc2c(ncn2CC2CCC(CO)C2)c(=O)[nH]1 (configuration not stated) | > 100 µM (inactive) | > 100 µM (inactive) |  | > 100 µM (inactive) | > 100 µM (inactive) | > 100 µM (inactive) | > 100 µM (inactive) | > 100 µM (inactive) |  | > 100 µM (inactive) | > 100 µM (inactive) | > 100 µM (inactive) | > 100 µM (inactive) | > 100 µM (inactive) |  | > 100 µM (inactive) | > 100 µM (inactive) | > 100 µM (inactive) | > 100 µM (inactive)
8 | S=C1SCN(Cc2ccco2)CN1c1ccc(Br)cc1 | 18.5 µM (inactive) | 16.4 µM (inactive) | 17.4 µM (inactive) | 16 µM (inactive) | 13.8 µM (inactive) | 13.9 µM (inactive) | 21.9 µM (inactive) | 15.6 µM (inactive) | 23.3 µM (inactive) | 18.7 µM (inactive) | 17.8 µM (inactive) | 15.8 µM (inactive) |  | 25.1 µM (inactive) | 7.6 µM (inactive) | 14.6 µM (inactive) | 12.2 µM (inactive) | 20 µM (inactive) | 20 µM (inactive)
9 | COC(=O)[C@H](Cc1ccccc1)NC(=O)N(CCC#N)CCN(C(=O)N[C@@H](Cc1ccccc1)C(=O)OC)c1ccccc1 | 47.1 µM (inactive) | 27.2 µM (inactive) |  | 18.9 µM (inactive) | 24.9 µM (inactive) | 23.6 µM (inactive) | > 10 µM (inactive) | 20 µM (inactive) | 37.8 µM (inactive) | 29.5 µM (inactive) | 18.2 µM (inactive) | 25 µM (inactive) | 26.7 µM (inactive) | 46.8 µM (inactive) |  | 18.9 µM (inactive) | 28.1 µM (inactive) | 23 µM (inactive) | 18.7 µM (inactive)
10 | CC1=C(C)CC(C#N)(C#N)C(C#N)(C#N)C1 | > 10 µM (inactive) | 1.45 µM (inactive) | > 6.4 µM (inactive) | > 8.79 µM (inactive) | 2.86 µM (inactive) | > 8.04 µM (inactive) | > 10 µM (inactive) | > 10 µM (inactive) | > 5.45 µM (inactive) | > 10 µM (inactive) | > 10 µM (inactive) | 4.21 µM (inactive) | > 10 µM (inactive) | > 10 µM (inactive) | 0.0802 µM (active) |  | > 4.91 µM (inactive) | > 10 µM (inactive) | > 3.28 µM (inactive)
11 | Fc1ccc(F)c(/C=N/C23CC4CC(CC(C4)C2)C3)c1 | > 10 µM (inactive) | 5.13 µM (inactive) | > 10 µM (inactive) | > 10 µM (inactive) | > 10 µM (inactive) | > 10 µM (inactive) | > 10 µM (inactive) | > 10 µM (inactive) | > 10 µM (inactive) | > 10 µM (inactive) | > 10 µM (inactive) | > 10 µM (inactive) |  | > 10 µM (inactive) | > 10 µM (inactive) |  | > 10 µM (inactive) | > 10 µM (inactive) | > 10 µM (inactive)
12 | O=C(NCCCCNCCCNC(=O)OCc1ccccc1)OCc1ccccc1 | 64.4 µM (inactive) | 31 µM (inactive) |  | 43.4 µM (inactive) | 18.3 µM (inactive) | 80.2 µM (inactive) | 34.5 µM (inactive) | 19.2 µM (inactive) | 26.8 µM (inactive) | 51.6 µM (inactive) | 18.4 µM (inactive) | 16.9 µM (inactive) |  | 69.7 µM (inactive) | 23.9 µM (inactive) | 33.4 µM (inactive) | 24.5 µM (inactive) | 17.4 µM (inactive) | 22.7 µM (inactive)

— ChEMBL document CHEMBL1201862, “PubChem BioAssay data set” (2004)
